SMILES strings stand for the structures.

For assay [1], the target named is human Farnesoid X receptor ligand-binding domain/Gal4 DNA binding domain chimera (Homo sapiens (Human), UniProt Q96RI1). The assay is described as follows: Cell-based FXR beta-lactamase reporter assay (FXR-UAS-bla HEK 293T cells). The conditions noted are these: for Emax: HEK-293T, read-out: % Efficacy; for EC50 / FXR pEC50 / % Efficacy: cellular FXR beta-lactamase reporter assay; for EC50 / FXR pEC50: -log EC50; for EC50: read-out: FXR pEC50 (converted); for % Efficacy: extent of activation relative to GW4064. Here is the method:
FXR activation was measured using a cell line and procedure obtained from Life Technologies (Cat #K1691). FXR-UAS-bla HEK 293T cells contain a human Farnesoid X receptor ligand-binding domain/Gal4 DNA binding domain chimera stably integrated into the CellSensor® UAS-bla HEK 293T cell line. The CellSensor® UAS-bla HEK 293T contains a beta-lactamase reporter gene under control of a UAS response element stably integrated into HEK 293T cells. Activation of FXR by bound ligands results in transcriptional activation of the beta-lactamase reporter gene, which is detected via assay of beta-lactamase activity. Cells are harvested and diluted into assay medium containing phenol red-free DMEM supplemented with 2% Charcoal-stripped FBS, pyruvate, non-essential amino acids. Cells are then transferred to a 384 well assay plate. Test compounds are dissolved in DMSO and a 3-fold serial dilution series is generated, then further diluted into assay medium. […] A FRET-based […] is loaded into cells as its acetomethoxy ester. Intracellular esterases liberate free CCF4, a cephalosporin core linking 7-hydroxycoumarin to fluorescein. In the presence of beta-lactamase activity produced in the presence of FXR agonists, cleavage of CCF4 spatially separates the two dyes and disrupts FRET, so that exciting the coumarin at 409 nm now produces a blue fluorescence signal at 447 nm. The change in FRET signal is plotted against the test compound concentration and fit to a 3-parameter logistical equation.
(In general: A reporter such as luciferase makes a cellular process visible.)

Assay [2] deals with ligand binding domain of human FXR (Homo sapiens (Human), UniProt Q96RI1). The assay is described as follows: FXR ligand binding assay (LanthaScreen FRET).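 For all read-outs here: TR-FRET coactivator recruitment: ligand-induced binding of fluorescein-labelled SRC2-2 peptide to GST-tagged FXR LBD detected via Tb anti-GST antibody, serial compound dilutions, 3-parameter logistic fit.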 The conditions noted are these: for Emax: read-out: % Efficacy; for FXR pEC50 / % Efficacy: FXR ligand binding assay; for FXR pEC50: -log EC50; for % Efficacy: extent of activation relative to GW4064.
Sequence of ligand binding domain of human FXR (Q96RI1 262-486): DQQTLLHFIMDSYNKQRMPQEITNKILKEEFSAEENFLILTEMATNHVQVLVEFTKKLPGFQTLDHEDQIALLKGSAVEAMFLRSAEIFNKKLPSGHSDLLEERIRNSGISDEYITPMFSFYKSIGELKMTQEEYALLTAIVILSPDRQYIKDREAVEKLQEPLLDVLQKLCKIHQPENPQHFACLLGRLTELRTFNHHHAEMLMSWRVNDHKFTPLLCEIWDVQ
Experimental: The affinity of FXR ligands for the ligand binding domain of FXR was determined using a commercially available human FXR ligand binding assay (LanthaScreen, Thermofisher Cat #PV4833). […] Binding of FXR ligands to the FXR ligand binding domain promotes binding of the fluorescein-labelled SRC2-2 peptide. This causes a FRET signal between the terbium-labelled anti-GST antibody and the fluorescein-labelled SRC peptide which are both bound to the FXR ligand binding domain.
Test compounds are dissolved in DMSO and a 3-fold serial dilution series is generated, then further diluted into assay buffer. The compounds are mixed with 5 nM GST-tagged FXR ligand binding domain, 5 nM Tb-labelled anti-GST antibody and 500 nM fluorcscein-labelled SRC2-2 peptide in a pH 7.4 buffer. The reaction is incubated at room temperature for 1 hour, then the FRET signal is measured as the ratio of the 520 nm/495 nm emission following excitation at 340 nm. The change in FRET signal is plotted against the test article concentration and fit to a 3-parameter logistical equation.

Sequence of human Farnesoid X receptor ligand-binding domain/Gal4 DNA binding domain chimera (Q96RI1 262-486, stated change not applied): as the sequence (Q96RI1 262-486) above

With `Cc1cc(C(=O)O)cc2sc(N3[C@@H]4CC[C@H]3C[C@@H](OC(=O)c3c(-c5c(Cl)cccc5Cl)noc3C3CC3)C4)nc12` [Compound I-11, 2-[(1R,3R,5S)-3-[5-Cyclopropyl-3-(2,6-dichlorophenyl)-1,2-oxazole-4-carbonyloxy]-8-azabicyclo[3.2.1]octan-8-yl]-4-methyl-1,3-benzothiazole-6-carboxylic Acid], the Emax was determined as 121% in assay [1] and 110% in assay [2]. The EC50 in assay [1] was 2.51 nM.

As for `O=C(O)c1cc(C2CC2)c2nc(N3[C@@H]4CC[C@H]3C[C@@H](OC(=O)c3c(-c5c(Cl)cccc5Cl)noc3C3CC3)C4)sc2c1` [Compound I-12, 2-[(1R,3R,5S)-3-[5-cyclopropyl-3-(2,6-dichlorophenyl)-1,2-oxazole-4-carbonyloxy]-8-azabicyclo[3.2.1]octan-8-yl]-4-(cyclopropyl)-1,3-benzothiazole-6-carboxylic Acid], in assay [1], the Emax is 112% and the EC50 was 7.94 nM. In assay [2], the Emax was determined as 125%.

On to `O=C(O)c1cc(F)c2nc(N3[C@@H]4CC[C@H]3C[C@@H](OC(=O)c3c(-c5ccccc5)noc3C3CC3)C4)sc2c1` [Compound I-13, 2-[(1R,3R,5S)-3-(5-Cyclopropyl-3-phenyl-1,2-oxazole-4-carbonyloxy)-8-azabicyclo[3.2.1]octan-8-yl]-4-fluoro-1,3-benzothiazole-6-carboxylic Acid], for which the “FXR pEC50” value is reported as 6 in assay [1] and 6.7 in assay [2]. In addition, the figures for the “% Efficacy” value in assay [1] and in assay [2] were 93% and 40%, respectively.

Turning to `O=C(O)c1cc(F)c2nc(N3[C@@H]4CC[C@H]3C[C@@H](OC(=O)c3c(-c5ccccc5OC(F)(F)F)noc3C3CC3)C4)sc2c1` [Compound I-14, 2-[(1R,3R,5S)-3-{5-cyclopropyl-3-[2-(trifluoromethoxy)phenyl]-1,2-oxazole-4-carbonyloxy}-8-azabicyclo[3.2.1]octan-8-yl]-4-fluoro-1,3-benzothiazole-6-carboxylic Acid], the “FXR pEC50” value in assay [1] is 8.1; in assay [2], 7.6. Further, the “% Efficacy” value in assay [1] stood at 116%; in assay [2], 147%.

For `O=C(O)c1cc(F)c2nc(N3[C@@H]4CC[C@H]3C[C@@H](OC(=O)c3c(-c5c(Cl)cccc5OC(F)F)noc3C3CC3)C4)sc2c1` [Compound I-15, 2-[(1R,3R,5S)-3-{3-[2-chloro-6-(difluoromethoxy)phenyl]-5-cyclopropyl-1,2-oxazole-4-carbonyloxy}-8-azabicyclo[3.2.1]octan-8-yl]-4-fluoro-1,3-benzothiazole-6-carboxylic Acid], in assay [1], the “FXR pEC50” value turned out to be 7.4 and the “% Efficacy” value was 108%. Moreover, in assay [2], the “FXR pEC50” value was found to be 7.4 and the “% Efficacy” value turned out to be 71%.

With `O=C(O)c1cc(F)c2nc(N3[C@@H]4CC[C@H]3C[C@@H](OC(=O)c3c(-c5c(F)cccc5F)noc3C3CC3)C4)sc2c1` [Compound I-16, 2-[(1R,3R,5S)-3-[5-cyclopropyl-3-(2,6-difluorophenyl)-1,2-oxazole-4-carbonyloxy]-8-azabicyclo[3.2.1]octan-8-yl]-4-fluoro-1,3-benzothiazole-6-carboxylic Acid], the “FXR pEC50” value in assay [1] amounted to 6.7; in assay [2] it was 7.4. For the same compound, the “% Efficacy” value worked out at 110% in assay [1] and 47% in assay [2].

Consider `COc1cc(C(=O)O)cc2sc(N3[C@@H]4CC[C@H]3C[C@@H](OC(=O)c3c(-c5c(F)cccc5F)noc3C3CC3)C4)nc12` [Compound I-17, 2-[(1R,3R,5S)-3-[5-cyclopropyl-3-(2,6-difluorophenyl)-1,2-oxazole-4-carbonyloxy]-8-azabicyclo[3.2.1]octan-8-yl]-4-methoxy-1,3-benzothiazole-6-carboxylic Acid], for which, in assay [1], the Emax is 112% and the EC50 was 126 nM. In addition, in assay [2], the Emax is 44%.

The record behind these values is patent US11091482B2, “Isoxazolyl-carbonyloxy azabicyclo[3.2.1]octanyl compounds as FXR activators” (ARDELYX, INC., priority 2016, dated 2021).
